In patent US8278344B2, “Heterocyclic inhibitors of necroptosis” (The Brigham and Women's Hospital, Inc., priority 2007, dated 2012):

Experiments:
[1] = test system: FADD-deficient variant of human Jurkat T cells; assay: Necroptosis inhibition in FADD-deficient Jurkat T cells treated with TNF-α, ATP-based viability; type: cell-based; conditions: for EC50: Jurkat, 10 ng/mL human TNF-α, 24 hours; for necroptosis inhibitory activity in words: TNF-α treated FADD-deficient Jurkat T cells
Method: Stock solutions (30 mM) in DMSO were initially prepared and then diluted with DMSO to give testing solutions, which were added to each test well. The final DMSO concentration was 0.5%. Eleven compound test concentrations (0.030-100 μM) were used. Each concentration was done in duplicate.
Cell viability assessments were performed using a commercial luminescent ATP-based assay kit (CellTiter-Glo, Promega, Madison, Wis.) according to the manufacturer's instructions. Briefly, 40 μL of the cell lysis/ATP detection reagent was added to each well. Plates were incubated on a rocking platform for 10 minutes at room temperature and luminescence was measured using a Wallac Victor 3 plate-reader (Perkin Elmer, Wellesley, Mass.). Cell viability was expressed as a ratio of the signal in the well treated with TNF-α and compound to the signal in the well treated with compound alone. […] EC50 values were calculated using nonlinear regression analysis of sigmoid dose-response (variable slope) curves from plots of log[I] verses viability values.

[2] = Microsome stability in pooled mouse liver microsomes; type: in vitro ADME; conditions: 3 μM compound, 0.5 mg/mL microsome protein, 1 mM NADPH; for microsomal CLint at 3 μM: in vitro intrinsic clearance, N=3, read-out: CLint (μL/minutes/mg protein)
Method: Microsome stability was determined in pooled mouse liver microsomes. Test compound (3 μM final concentration) along with 0.5 mg/mL microsome protein and 1 mM NADPH was incubated for 0, 5, 15, 30 and 60 minutes. Incubation of test compound and microsomes in the absence of NADPH served as a negative control. The samples were quenched with methanol and centrifuged for 20 minutes at 2500 rpm to precipitate proteins. Sample supernatants were analyzed (N=3) by LC/MS. The In peak area ratio (compound peak area/internal standard peak area) was plotted against time and the slope of the line determined to give the elimination rate constant [k=(−1)(slope)]. The half life (t1/2 in minutes), and the in vitro intrinsic clearance (CLint in μL/min/mg protein) were calculated according to the following equations, where V=incubation volume in μL/mg protein: […]

[3] = Table 2, Formula (I-a), standard deviation <10%

| Structure (SMILES) | EC50 ([1]; Table 5, pyrrole compounds) [nM] | EC50 [1, 3] [nM] | also measured |
| --- | --- | --- | --- |
| CC(C)n1cccc1C(=O)N[C@@H](C)c1c(F)cccc1Cl [Compound 90] | 520 |  |  |
| Cc1cc[nH]c1C(=O)NCc1c(F)cccc1Cl [Compound 81] | 4900 |  |  |
| Cn1cc(C#N)cc1C(=O)NCc1c(F)cccc1Cl [Compound 98] | > 20000 |  |  |
| O=C(NC(=O)c1c(F)cccc1Cl)c1snnc1C1CC1 [Compound 16] |  |  | EC50 ([1]; Table 3, Formula (I-b)): > 100000 nM; necroptosis inhibitory activity in words [1]: inactive |
| Fc1cccc(Cl)c1CNCc1snnc1C1CC1 [Compound 13] |  |  | EC50 ([1]; Table 3, Formula (I-b)): > 100000 nM; necroptosis inhibitory activity in words [1]: inactive |
| CC(C)(C)c1nnsc1C(=O)NCc1c(F)cccc1Cl [Compound 36] |  | 18000 |  |
| O=C(NCc1cccc2ccccc12)c1snnc1C1CC1 [Compound 45] |  | > 100000 |  |
| CC(C)n1cc(C#N)cc1C(=O)NCc1c(F)cccc1Cl [Compound 99] | > 20000 |  |  |
| CC(C)n1cccc1C(=O)N[C@H](C)c1c(F)cccc1Cl [Compound 91] | > 20000 |  |  |
| Cc1ccn(C)c1C(=O)NCc1c(F)cccc1Cl [Compound 82] | > 20000 |  |  |
| O=C(NCc1c(F)cccc1Cl)c1snnc1C1CCC1 [Compound 33] |  | 600 |  |
| CN(Cc1c(F)cccc1Cl)C(=O)c1cccn1C [Compound 88] | > 20000 |  |  |
| CCn1c(Br)ccc1C(=O)NCc1c(F)cccc1Cl [Compound 93] | 2400 |  |  |
| O=C(NCc1c(F)cccc1Cl)c1ccc[nH]1 [Compound 80] | > 20000 |  |  |
| O=C(NCc1c(F)cccc1C(F)(F)F)c1snnc1C1CC1 [Compound 44] |  | > 100000 |  |
| O=C(NCc1c(F)cccc1Cl)c1snnc1C1CCCC1 [Compound 34] |  | 1900 |  |
| O=C(NCc1c(F)cccc1Cl)c1snnc1-c1ccccc1 [Compound 37] |  | > 100000 |  |

| Structure (SMILES) | EC50 ([1]; Table 5, pyrrole compounds) [nM] | EC50 [1, 3] [nM] | also measured |
| --- | --- | --- | --- |
| O=C(NCc1c(F)cccc1F)c1snnc1C1CC1 [Compound 39] |  | 1500 |  |
| CC(C)n1c(C#N)ccc1C(=O)NCc1c(F)cccc1Cl [Compound 96] | 1400 |  |  |
| CC(NC(=O)c1cccn1C(C)C)c1c(F)cccc1Cl (racemic) [Compound 89] | 2100 |  |  |
| O=C(NCc1c(F)cccc1Cl)c1snnc1C1CCCCC1 [Compound 35] |  | 6000 |  |
| CCn1c(C#N)ccc1C(=O)NCc1c(F)cccc1Cl [Compound 95] | 1900 |  |  |
| CC(C)n1cccc1C(=O)NCc1c(F)cccc1Cl [Compound 85] | 440 |  |  |
| O=C(NCc1c(F)cccc1Cl)c1cccn1Cc1ccccc1 [Compound 86] | > 20000 |  |  |
| Cn1c(C#N)ccc1C(=O)NCc1c(F)cccc1Cl [Compound 94] | 340 |  | half-life at 3 μM [2]: 42.3 min; microsomal CLint at 3 μM [2]: 32.8 ± 2.2 µL/min/mg |
| Cn1c(Cl)ccc1C(=O)NCc1c(F)cccc1Cl [Compound 78] | 740 |  | half-life at 3 μM [2]: 15.4 min; microsomal CLint at 3 μM [2]: 89.8 ± 3 µL/min/mg |
| Cc1cccc(Cl)c1CNC(=O)c1snnc1C1CC1 [Compound 41] |  | 10000 |  |
| Cn1cccc1C(=O)NCc1c(F)cccc1Cl [Compound 84] | 900 |  | half-life at 3 μM [2]: 17.2 min; microsomal CLint at 3 μM [2]: 80.6 ± 4.4 µL/min/mg |
| CCCCC(NC(=O)c1cccn1C(C)C)c1c(F)cccc1Cl (racemic) [Compound 92] | > 20000 |  |  |
| Cc1ccn(C(C)C)c1C(=O)NCc1c(F)cccc1Cl [Compound 83] | 7800 |  |  |
| O=C(NCc1ccccc1F)c1snnc1C1CC1 [Compound 40] |  | 1500 |  |
| C[C@H](NC(=O)c1ccc(C#N)n1C)c1c(F)cccc1Cl [Compound 97] |  |  | half-life at 3 μM [2]: 236 min; microsomal CLint at 3 μM [2]: 5.9 ± 2.5 µL/min/mg |
| CC(c1ccccc1)n1cccc1C(=O)NCc1c(F)cccc1Cl (stereo not drawn) [Compound 87] | > 20000 |  |  |
